Measured values from patent US8383637B2, “2-amino-quinazoline derivatives useful as inhibitors of β-secretase (BACE)” (Jansssen Pharmaceutica N.V., priority 2004, dated 2013).
Where two headings read alike, the source gives them in different places.

Columns and labels:
Format in all cases: biochemical
[1] = target: T1, β-secretase(BACE) (Homo sapiens, UniProt P56817); assay: BACE Assay-1 (MCA-substrate, IC50); conditions: procedure of Example 158; read-out: IC50 μM (158)
T1 construct: purchased Panvera
Summary of the method: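 Human BACE (work solution 10 μg/mL) with MCA-peptide substrate (stock 2.0 mg/mL) in 0.05 M citrate buffer, pH 5.0, with PEG8000. Fluorescence read at T0 and T60; compounds tested at multiple concentrations and IC50 calculated from these readings.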

[2] = target: T1, β-secretase(BACE); assay: BACE % Inhibition Assay ((Aedens)-[…]-(Dabcyl K-amide) substrate)
Procedure: The substrate stock solution was prepared in DMSO as a 10 mg/mL solution. The substrate working solution was prepared by diluting the 10 mg/mL stock solution with substrate assay buffer to a final concentration of 300 μg/mL. The β-secretase (BACE) working solution was prepared by diluting a 0.83 mg/mL BACE stock solution with enzyme assay buffer to a final concentration of 4 μg/mL.
Test compounds were dissolved in DMSO to 10 mM.
The screening procedure for this assay was as follows: 15 μL of BACE working solution was pipetted into each well of a 96-well plate. To each well was then pipetted 2 μL of test compound at the selected concentration. Test compound and BACE were then mixed with a pipettor and incubated for 20 min at room temperature. To each well was then added 10 μL of the substrate working solution. The plates were then incubated for 1 hour at room temperature.
The procedure for the blank was as follows. 15 μL of assay buffer was pipetted into each well to be used as a blank control. To each well was then added 2 μL of vehicle and 10 μL of substrate working solution. The plates were then incubated for 1 hour at room temperature.
The procedure for the positive control was as follows: 15 μl of BACE working solution was pipetted into each well to be used as a positive control. To each well was then pipetted 2 μL of vehicle. Vehicle and BACE were then mixed with a pipettor and incubated for 20 min at room temperature. To each well was then added 10 μL of the substrate working solution. The plates were then incubated for 1 hour at room temperature.
For test compounds, % inhibition was determined at each concentration as follows: […]

[3] = target: T1, β-secretase(BACE); assay: BACE Assay-2 (FS1 substrate, IC50 and Ki); conditions: procedure of Example 159, FS1 substrate; for Ki: read-out: Ki μM (159)
[4] = target: T1, β-secretase(BACE); assay: BACE FS1% Inhibition Assay; conditions: FS1 substrate
Summary of the method: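 Human BACE (4 μg/mL working solution) preincubated 20 min at room temperature with compound, then FS1 substrate (300 μg/mL working solution) added and incubated 1 h at room temperature. Percent inhibition calculated at each compound concentration against blank and vehicle controls.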

[5] = 3 μM test compound, % error ±10%, read-out: % Inhibition
[6] = 10 μM test compound, % error ±10%, read-out: % Inhibition
[7] = 3 μM test compound, % error ±10%
[8] = 10 μM test compound, % error ±10%
[9] = 0.3 μM test compound, % error ±10%
[10] = 1 μM test compound, % error ±10%

T1 sequence (P56817 46-501): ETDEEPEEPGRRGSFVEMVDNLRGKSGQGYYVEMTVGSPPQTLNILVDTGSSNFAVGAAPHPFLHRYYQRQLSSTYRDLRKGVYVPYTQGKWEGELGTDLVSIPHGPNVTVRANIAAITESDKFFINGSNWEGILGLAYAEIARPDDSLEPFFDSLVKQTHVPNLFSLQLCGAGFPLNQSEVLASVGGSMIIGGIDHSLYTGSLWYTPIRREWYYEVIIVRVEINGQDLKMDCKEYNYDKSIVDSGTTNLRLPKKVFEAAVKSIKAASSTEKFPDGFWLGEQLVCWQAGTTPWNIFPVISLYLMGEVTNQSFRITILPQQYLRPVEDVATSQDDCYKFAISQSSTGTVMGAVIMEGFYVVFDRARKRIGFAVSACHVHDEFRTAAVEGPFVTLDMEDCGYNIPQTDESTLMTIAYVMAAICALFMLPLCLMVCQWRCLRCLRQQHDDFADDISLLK

NC1=Nc2ccc(C(=O)c3ccccc3)cc2CN1CCCCNC(=O)C1CCCCC1 [Compound 30]
IC50 [1]: 11 µM | inhibition at 3 µM [2, 5]: 32% | inhibition at 10 µM [2, 6]: 48% | IC50 [3]: 20 µM | Ki [3]: 2.3 µM

Cc1ccc(S(=O)(=O)NCCN2Cc3cc(Oc4ccccc4)ccc3N=C2N)cc1 [Compound 109]
% Inhibition [2, 7]: <30% | % Inhibition [2, 8]: 58%

CC(C)(C)OC(=O)NCC(C1CCCCC1)N1Cc2cc(Oc3ccccc3)ccc2N=C1N (stereo not drawn) [Compound 367]
inhibition at 0.3 µM [2, 9]: < 30% | inhibition at 1 µM [2, 10]: 80% | inhibition at 3 µM [2, 5]: 111% | Ki [3]: 0.12 µM

NC1=Nc2ccc(C(=O)c3ccccc3)cc2CN1CCCCC(=O)N(C1CCCCC1)C1CCCCC1 [Compound 46]
IC50 [1]: 0.6 µM | inhibition at 3 µM [2, 5]: 66% | inhibition at 10 µM [2, 6]: 82% | IC50 [3]: 2.1 µM | Ki [3]: 0.6 µM

NC1=Nc2ccc(Oc3ccccc3)cc2CN1C(CNC(=O)C1(c2ccc(Cl)cc2)CCCC1)C1CCCCC1 (stereo not drawn) [Compound 390]
% Inhibition [2, 9]: <30% | % Inhibition [2, 10]: 50% | % Inhibition [2, 7]: 102%

NC1=Nc2ccc(Oc3ccccc3)cc2CN1CCC(=O)NC12CC3CC(CC(C3)C1)C2 [Compound 365]
inhibition at 0.3 µM [2, 9]: < 30% | inhibition at 1 µM [2, 10]: 86% | inhibition at 3 µM [2, 5]: 113% | Ki [3]: 0.1 µM

CCCC(CCC(=O)N(C)C1CCCCC1)N1Cc2cc(Oc3ccccc3)ccc2N=C1N (stereo not drawn) [Compound 86]
% Inhibition [2, 7]: 72% | % Inhibition [2, 8]: 80%

CC(C)(C)C(=O)NCC(C1CCCCC1)N1Cc2cc(Oc3ccccc3)ccc2N=C1N (stereo not drawn) [Compound 317]
% Inhibition [2, 9]: <30% | % Inhibition [2, 10]: 66% | % Inhibition [2, 7]: 107%

NC1=Nc2ccc(Oc3ccccc3)cc2CN1Cc1cccc(CNC(=O)C(c2ccccc2)c2ccccc2)c1 [Compound 337]
% Inhibition [2, 9]: <30% | % Inhibition [2, 10]: <30% | % Inhibition [2, 7]: <30%

CCCC(CCCC(=O)N(CC)C1CCCCC1)N1Cc2cc(Oc3ccccc3)ccc2N=C1N (stereo not drawn) [Compound 105]
% Inhibition [2, 7]: <30% | % Inhibition [2, 8]: <30% | % Inhibition (FS) 0.3 μM ([4]; 0.3 μM test compound): <30% | % Inhibition (FS) 1 μM ([4]; 1 μM test compound): <30% | % Inhibition (FS) 3 μM ([4]; 3 μM test compound): <30%

CCCN1Cc2cc(Oc3cccc(NC(=O)C4CCCCC4)c3)ccc2N=C1N [Compound 44]
% Inhibition [2, 7]: <30% | % Inhibition [2, 8]: 31%

CN(C(=O)[C@@H]1CCC[C@@H]1N1Cc2cc(Oc3ccccc3)ccc2N=C1N)C1CCCCC1 [Compound 72]
% Inhibition [2, 7]: <30% | % Inhibition [2, 8]: <30%

NC1=Nc2ccc(Oc3ccccc3)cc2CN1C(CNC(=O)CCC1CCCC1)C1CCCCC1 (stereo not drawn) [Compound 366]
inhibition at 0.3 µM [2, 9]: 64% | inhibition at 1 µM [2, 10]: 113% | inhibition at 3 µM [2, 5]: 119% | Ki [3]: 0.067 µM

CN(C(=O)c1cccc(N2Cc3cc(Oc4ccccc4)ccc3N=C2N)c1)C1CCCCC1 [Compound 94]
% Inhibition [2, 7]: <30% | % Inhibition [2, 8]: <30%

CN(C(=O)[C@@H]1CCCN1C(=O)CN1Cc2cc(Oc3ccccc3)ccc2N=C1N)C1CCCCC1 [Compound 88]
% Inhibition [2, 7]: <30% | % Inhibition [2, 8]: <30%

CN(C(=O)c1cc(CN2Cc3cc(Oc4ccccc4)ccc3N=C2N)ccn1)C1CCCCC1 [Compound 89]
inhibition at 3 µM [2, 5]: 77% | inhibition at 10 µM [2, 6]: 81% | IC50 [3]: 0.4 µM

CCCN1Cc2cc(Oc3cccc(N(C#N)CC4CCCCC4)c3)ccc2N=C1N [Compound 56]
% Inhibition [2, 7]: 35% | % Inhibition [2, 8]: 79%

CCCC(CCC)C(=O)NCc1cccc(CN2Cc3cc(Oc4ccccc4)ccc3N=C2N)c1 [Compound 338]
% Inhibition [2, 9]: <30% | % Inhibition [2, 10]: <30% | % Inhibition [2, 7]: <30%

NC1=Nc2ccc(Oc3ccccc3)cc2CN1Cc1cccc(CNC(=O)C23CC4CC(CC(C4)C2)C3)c1 [Compound 336]
% Inhibition [2, 9]: <30% | % Inhibition [2, 10]: <30% | % Inhibition [2, 7]: <30%

CN(C(=O)c1ccc(CN2Cc3cc(Oc4ccccc4)ccc3N=C2N)cc1)C1CCCCC1 [Compound 97]
% Inhibition [2, 7]: <30% | % Inhibition [2, 8]: 53%

CC(C)CCC(=O)NCC(C1CCCCC1)N1Cc2cc(Oc3ccccc3)ccc2N=C1N (stereo not drawn) [Compound 388]
% Inhibition [2, 9]: 107% | % Inhibition [2, 10]: 119% | % Inhibition [2, 7]: 119%

CN(C(=O)[C@@H]1CC[C@H](N2Cc3cc(Oc4ccccc4)ccc3N=C2N)C1)C1CCCCC1 [Compound 77]
% Inhibition [2, 7]: <30% | % Inhibition [2, 8]: <30%

CC(C)(C)OC(=O)N1CCC(N2Cc3cc(Oc4ccccc4)ccc3N=C2N)C1 (stereo not drawn) [Compound 93]
% Inhibition [2, 7]: <30% | % Inhibition [2, 8]: <30%

CC(C)CC(=O)NCC(C1CCCCC1)N1Cc2cc(Oc3ccccc3)ccc2N=C1N (stereo not drawn) [Compound 389]
inhibition at 0.3 µM [2, 9]: 85% | inhibition at 1 µM [2, 10]: 112% | inhibition at 3 µM [2, 5]: 120% | Ki [3]: 0.028 µM

CN(C(=O)C1CCC(CN2Cc3cc(Oc4ccccc4)ccc3N=C2N)CC1)C1CCCCC1 (stereo not drawn) [Compound 100]
% Inhibition [2, 7]: <30% | % Inhibition [2, 8]: <30%

CN(C(=O)[C@H]1CCCC[C@H]1N1Cc2cc(Oc3ccccc3)ccc2N=C1N)C1CCCCC1 [Compound 81]
% Inhibition [2, 7]: <30% | % Inhibition [2, 8]: <30%

CN(C(=O)c1cccc(CN2Cc3cc(Oc4ccccc4)ccc3N=C2N)c1)C1CCCCC1 [Compound 62, 3-(2-Amino-6-phenoxy-4H-quinazolin-3-ylmethyl)-N-cyclohexyl-N-methyl-benzamide]
inhibition at 3 µM [2]: 62% | inhibition at 10 µM [2]: 82% | % Inhibition ([2]; 3 µM): 73% | % Inhibition ([2]; 10 µM): 82%

CCOC(=O)CCN1Cc2cc(Oc3ccccc3)ccc2N=C1N [Compound 65]
% Inhibition [2, 7]: <30% | % Inhibition [2, 8]: <30%

CC(C)(C)OC(=O)NCCCCN1Cc2cc(Oc3ccccc3)ccc2N=C1N [Compound 101]
inhibition at 3 µM [2, 5]: 45% | inhibition at 10 µM [2, 6]: 64% | IC50 [3]: 11 µM

CCCCC(CC)C(=O)NCC(c1ccccc1)N1Cc2cc(Oc3ccccc3)ccc2N=C1N (stereo not drawn) [Compound 341]
% Inhibition [2, 9]: <30% | % Inhibition [2, 10]: <30% | % Inhibition [2, 7]: 72%

CCCCC(CC)C(=O)NCc1cccc(CN2Cc3cc(Oc4ccccc4)ccc3N=C2N)c1 (stereo not drawn) [Compound 339]
% Inhibition [2, 9]: <30% | % Inhibition [2, 10]: <30% | % Inhibition [2, 7]: <30%

CC(C)(C)OC(=O)NCCCN1Cc2cc(Oc3ccccc3)ccc2N=C1N [Compound 103]
inhibition at 3 µM [2, 5]: 56% | inhibition at 10 µM [2, 6]: 74% | IC50 [3]: 3.6 µM | Ki [3]: 4 µM

CN(C(=O)[C@@H]1CCCC[C@@H]1N1Cc2cc(Oc3ccccc3)ccc2N=C1N)C1CCCCC1 [Compound 87]
% Inhibition [2, 7]: <30% | % Inhibition [2, 8]: <30%

CCN(CC)CCN1Cc2cc(Oc3ccccc3)ccc2N=C1N [Compound 79]
% Inhibition [2, 7]: <30% | % Inhibition [2, 8]: <30%
